One data set deals with patients with FSGS. Briefly: Phase 2 open-label basket study, FSGS cohort: urine protein to creatinine ratio (UPCR). The format is in vivo, human. To be noted: 0.75 mg atrasentan daily; week 24 vs week 0; twenty patients with FSGS. The text has this:
Subjects will be enrolled in disease specific cohorts as follows: • Cohort 1: IgAN (with UPCR 0.5 to <1.[…]) • Cohort 2: FSGS • Cohort 2b: FSGS (dose escalation) • Cohort 3: Alport syndrome • Cohort 4: DKD • Cohort 5: FSGS (higher dose cohort) Subjects in Cohorts 2 and 5 (FSGS) include the following characteristics: • Biopsy-confirmed FSGS or documentation of a genetic mutation in a podocyte protein associated with FSGS. […] Urine Protein to Creatinine Ratio (UPCR) will be assessed. Assessment of proteinuria plays an important role in the diagnosis of kidney disease and in monitoring disease activity (Zhao, 2016). UPCR is widely used for proteinuria evaluation in clinical practice. UPCR will be measured using FMV urine sample and a 24-hour urine collection at timepoints. […] Twenty patients with FSGS were enrolled in the study if the inclusion and exclusion criteria of Example 1 were met.

In the next data set the test system is subjects with DKD. To be noted: RADAR Phase 2b, cited from earlier work.
The conditions of data set [1]: 0.75 mg dose; DKD; PK-PD exposure-response model; cited from earlier work.
Data set [2] has as its system patients with diabetic kidney disease. To be noted: cited from earlier work.
The mark [3] stands for this setting: daily dose 0.75 mg, dose-range finding studies and exposure-response analyses.

SMILES strings stand for the structures. Read-outs that look alike come from different tables or passages of the source.

For `CCCCN(CCCC)C(=O)CN1C[C@H](c2ccc3c(c2)OCO3)[C@@H](C(=O)O)[C@@H]1c1ccc(OC)cc1` [Atrasentan, (2R,3R,4S)-4-(1,3-benzodioxol-5-yl)-1-[2-(dibutylamino)-2-oxoethyl]-2-(4-methoxyphenyl)pyrrolidine-3-carboxylic acid], the “reduction in UPCR compared the baseline measurement” value with patients with FSGS came out at 38.3%. Further, in the data set with subjects with DKD (0.75 mg dose), the “fluid retention (body weight, edema incidence, treatment discontinuations)” value is given as “only minimal evidence for fluid retention” and the proteinuria reduction is 35%. In the data set on subjects with DKD (1.25 mg dose), the “fluid retention related adverse events” value is given as “greater fluid retention related adverse events including treatment discontinuation” and the proteinuria reduction was 38%. For the same compound, the Ctrough range in data set [1] is 1.2 to 2.2 ng/mL. In addition, in data set [2] (setting [3]), the UACR entry was “marked reduction” and the fluid retention result is recorded as “only modest fluid retention”. In addition, the “risk of renal events (doubling of serum creatinine or end-stage kidney disease)” value in data set [2] (patients with diabetic kidney disease) is reported as “significantly reducing the risk of renal events”. For the same compound, the “most common adverse events associated with treatment” value in data set [2] (subjects with DKD) is “fluid retention, hemodilution, and vasodilation”.

The record behind these values is patent US20250352511A1 (CHINOOK THERAPEUTICS, INC., priority 2022, published 2025).
